From US20130158070A1, “CONJUGATES OF POLYUNSATURATED FATTY ACIDS AND AMINE-CONTAINING COMPOUNDS AND USES THEREOF” (priority 2010, published 2013) come the findings set out here.

Test [1] deals with collagen induced arthritis. In words: Collagen induced arthritis (CIA), PGE2 production and TNFα levels. Type of test: in vivo, black/57 mice. The settings on record: 250 mg/(kg/day) orally, 21 days, compared to Ibuprofen 500 mg/(kg/day). As for the experimental part:
Male black/57 mice, age 8-10 weeks, were used in in vivo study of PGE2 production and TNFα levels in collagen induced arthritis (CIA) model.
Bovine CII (type II collagen CII, Sigma, St. Louis, Mo., USA) was dissolved in 0.1 M acetic acid overnight at 4° C. and was thereafter emulsified in an equal volume of complete Freund's adjuvant (Sigma). The mice were immunized intradermally at the base of the tail with 100 μl of emulsion containing 100 μg of CII. On day 21, mice were boosted intraperitoneally with 100 μg CII dissolved in phosphate buffered saline (PBS).
The tested conjugate or Ibuprofen (Sigma, Israel) were dissolved in 80% Cremophor EL:saline 80%:20%, respectively.
Mice were randomly selected and assigned to one of the following groups: tested conjugate (250 mg/(kg/day); n=4), Iboprofen (500 mg/ (kg/day); n=4) or vehicle (n=4). The tested conjugate and Ibuprofen were administered orally. Treatment was given daily for a period of 21 days.
Joint tissues were prepared as previously described for measuring the production of PGE2 and cytokines. […] PGE2 concentration was measured with a commercial radio immunoassay (RIA) kit (Amersham, UK) according to the manufacturer's instructions. […] Results were expressed as pg/ml of serum or supernatant from joint homogenate.

Test [2] has as its system collagen induced arthritis. In words: Collagen induced arthritis (CIA), arthritis score, paw thickness, body weight. It counts as in vivo, DBA/1J mice. The protocol: In a different study, 34 male 8-10 weeks old DBA/1J mice were used. Animals were fed ad libitum a commercial rodent diet (Teklad Certified Global 18% Protein Diet cat #: 106S8216). Animals had free access to acidified drinking water (pH between 2.5 and 3.0) obtained from the municipality supply.
The effect of MWL-002 (conjugate of DHA and taurine) was tested and compared to that of Ibuprofen. Cremophore EL was used as a vehicle.
On day 0, each mouse was anesthetized by inhalation of 3% isofluorane and injected intradermally at the base of the tail with 0.1 ml of emulsion containing 100 μg collagen, using a 1-ml glass syringe with a 26-guade needle. Booster injection was performed at day 15 to the same injection site.
The tested materials were administered 3 times a week, via IP for a total of 12 administrations starting on day 1.
Observations for clinical score were performed twice weekly until study termination.
The severity of arthritis was scored based on the level of inflammation in each of the four paws and recorded as one of five grades according to the following:
Hind paw thickness (edema) was measured by digital caliper once a week until Day 14 and thereafter twice weekly and prior to study termination. Two cross sectional areas were marked, one on the paw and the other at the ankle (tarsal joint). Two measurements were made on each section, perpendicular to each other. The results obtained were calculated as the average areas of both hind limbs per animal.
Body weight was measured prior to dosing, during the study twice a week and prior to study termination.

As to `CCC=CCC=CCC=CCC=CCC=CCC=CCCC(=O)N1CC(O)CC1C(=O)O` (stereo not shown) [MWL001], in test [1], the “Prostaglandin E2 levels in the joints” value was “significant decrease” and the TNF-α levels entry was “significant decrease”.

In the case of `CC/C=C\C/C=C\C/C=C\C/C=C\C/C=C\C/C=C\CCC(=O)NCCS(=O)(=O)O` [MWL002, N-docosa-4,7,10,13,16,19-hexaenoyl-taurine], the “day from which arthritis score (AS) increases” value in test [2] (50 mg/kg IP, 3 times a week, 12 administrations) was 57 days. For the same molecule, in test [2] (50 mg/kg IP, overall conclusion), the CIA development entry is recorded as “inhibits CIA development robustly”. Moreover, the body weight entry in test [2] (50 mg/kg IP, from day 37, in comparison to the other 3 groups) was “increase the body weight in a major percent”. Moreover, the “arthritis thickness index (ATI) increase” value in test [2] (from day 0 to day 70, 50 mg/kg IP, groups 1M DHA-Tau, 2M DHA, 4M Ibuprofen) is recorded as 150%. Further, the ATI course result in test [2] (from day 43 until end of study, FIG. 8B) is reported as “almost no changes”.
